The results in this text go back to ChEMBL document CHEMBL3217699, “Discovery of potent, proteolytically stable, and cell permeable human sirtuin peptidomimetic inhibitors containing N-thioacetyl-lysine” (Medchemcomm, 2010).

The target of data set [1] is T1, NAD-dependent protein deacetylase sirtuin-1 (Homo sapiens, UniProt Q96EB6).
T1 sequence (Q96EB6 whole entry): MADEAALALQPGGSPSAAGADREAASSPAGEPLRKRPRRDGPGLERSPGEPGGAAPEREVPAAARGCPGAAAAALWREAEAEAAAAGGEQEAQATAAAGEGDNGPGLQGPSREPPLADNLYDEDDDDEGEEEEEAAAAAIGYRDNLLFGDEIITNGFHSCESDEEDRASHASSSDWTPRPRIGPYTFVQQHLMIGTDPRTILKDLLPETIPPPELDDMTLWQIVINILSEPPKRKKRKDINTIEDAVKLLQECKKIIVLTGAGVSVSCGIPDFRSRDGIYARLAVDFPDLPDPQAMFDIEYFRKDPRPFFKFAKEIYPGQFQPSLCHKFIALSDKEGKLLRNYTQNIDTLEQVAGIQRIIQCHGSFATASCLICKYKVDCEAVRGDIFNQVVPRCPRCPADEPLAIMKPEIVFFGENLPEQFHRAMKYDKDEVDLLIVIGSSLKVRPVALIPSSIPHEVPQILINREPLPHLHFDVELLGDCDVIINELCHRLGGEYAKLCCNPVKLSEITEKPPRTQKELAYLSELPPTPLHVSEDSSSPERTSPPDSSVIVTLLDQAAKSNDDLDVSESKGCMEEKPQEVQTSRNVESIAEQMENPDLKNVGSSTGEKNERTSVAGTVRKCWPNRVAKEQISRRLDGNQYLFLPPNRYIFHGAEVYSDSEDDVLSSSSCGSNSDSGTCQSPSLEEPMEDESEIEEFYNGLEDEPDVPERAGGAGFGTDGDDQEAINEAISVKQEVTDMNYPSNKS
Description: Inhibition of human SIRT1 using peptide substrate assessed as deacetylase activity.

In data set [2] the target is T2, NAD-dependent protein deacetylase sirtuin-1 (Homo sapiens) (UniProt Q96EB6).
T2 sequence (whole entry): T1 sequence (Q96EB6 whole entry)
Conditions: HCT-116, 10 uM.
Description: Inhibition of SIRT1 in human HCT116 cells assessed as increase in p53 acetylation level at 10 uM by Western blot analysis

Data set [3] concerns the target T2, NAD-dependent protein deacetylase sirtuin-1 (Homo sapiens). The data set is described as follows: Inhibition of SIRT1 in human HCT116 cells assessed as increase in p53 acetylation level by Western blot analysis. The format is cell-based. The conditions noted are these: HCT-116. For orientation: In western blotting, separated proteins are transferred to a membrane and probed.

The target is the same in data set [4]. Description: Inhibition of SIRT1 in human HCT116 cells assessed as increase in p53 acetylation level at 3 uM by Western blot analysis. In kind it is cell-based. The conditions noted are these: HCT-116.
Data set [5] deals with T3, NAD-dependent protein deacetylase sirtuin-3, mitochondrial (Homo sapiens, UniProt Q9NTG7).
T3 sequence (Q9NTG7 whole entry): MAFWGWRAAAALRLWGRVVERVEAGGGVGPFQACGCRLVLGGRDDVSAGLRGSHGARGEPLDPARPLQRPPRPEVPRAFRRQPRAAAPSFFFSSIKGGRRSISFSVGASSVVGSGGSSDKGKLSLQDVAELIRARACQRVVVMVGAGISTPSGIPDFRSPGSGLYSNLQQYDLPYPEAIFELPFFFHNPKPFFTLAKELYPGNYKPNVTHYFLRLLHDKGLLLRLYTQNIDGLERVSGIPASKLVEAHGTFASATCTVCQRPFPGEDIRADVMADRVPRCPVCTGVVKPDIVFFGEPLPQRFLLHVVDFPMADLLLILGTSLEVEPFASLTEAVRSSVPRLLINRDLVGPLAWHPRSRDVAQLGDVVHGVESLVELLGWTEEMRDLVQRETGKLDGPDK
Description: Inhibition of GST-tagged SIRT3 (unknown origin) by HPLC assay.

In data set [6] the target is T4, NAD-dependent protein deacetylase sirtuin-3, mitochondrial (Homo sapiens) (UniProt Q9NTG7).
T4 sequence (whole entry): T3 sequence (Q9NTG7 whole entry)
Description: Activity of GST-tagged SIRT3 (unknown origin) assessed as compound deacetylation measured up to 4 hrs by sirutin time course assay.

Data set [7] addresses Histone deacetylase 1 (Homo sapiens) (UniProt Q13547). The data set is described as follows: Activity of HDAC1 in human HeLa cells nuclear extract assessed as compound deacetylation measured up to 2 hrs by time course assay. In kind it is cell-free.
In data set [8] the target is Histone deacetylase 2 (Homo sapiens) (UniProt Q92769). The data set is described as follows: Activity of HDAC2 in human HeLa cells nuclear extract assessed as compound deacetylation measured up to 2 hrs by time course assay. In kind it is cell-free.
Histone deacetylase 2 (Homo sapiens), sequence (Q92769 whole entry): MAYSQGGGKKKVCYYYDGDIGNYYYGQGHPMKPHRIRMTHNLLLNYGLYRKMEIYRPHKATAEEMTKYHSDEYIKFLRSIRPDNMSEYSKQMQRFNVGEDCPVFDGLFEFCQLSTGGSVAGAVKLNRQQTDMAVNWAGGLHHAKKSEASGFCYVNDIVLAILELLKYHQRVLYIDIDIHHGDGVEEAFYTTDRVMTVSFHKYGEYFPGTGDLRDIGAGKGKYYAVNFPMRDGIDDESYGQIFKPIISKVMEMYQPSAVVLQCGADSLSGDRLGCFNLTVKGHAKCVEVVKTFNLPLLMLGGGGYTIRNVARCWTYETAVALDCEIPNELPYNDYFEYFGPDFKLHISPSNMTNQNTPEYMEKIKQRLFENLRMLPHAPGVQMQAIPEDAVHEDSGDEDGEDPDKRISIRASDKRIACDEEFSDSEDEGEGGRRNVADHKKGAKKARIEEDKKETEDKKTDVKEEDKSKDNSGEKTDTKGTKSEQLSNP
Data set [9] deals with T5, NAD-dependent protein deacetylase sirtuin-2 (Homo sapiens, UniProt Q8IXJ6).
T5 sequence (Q8IXJ6 whole entry): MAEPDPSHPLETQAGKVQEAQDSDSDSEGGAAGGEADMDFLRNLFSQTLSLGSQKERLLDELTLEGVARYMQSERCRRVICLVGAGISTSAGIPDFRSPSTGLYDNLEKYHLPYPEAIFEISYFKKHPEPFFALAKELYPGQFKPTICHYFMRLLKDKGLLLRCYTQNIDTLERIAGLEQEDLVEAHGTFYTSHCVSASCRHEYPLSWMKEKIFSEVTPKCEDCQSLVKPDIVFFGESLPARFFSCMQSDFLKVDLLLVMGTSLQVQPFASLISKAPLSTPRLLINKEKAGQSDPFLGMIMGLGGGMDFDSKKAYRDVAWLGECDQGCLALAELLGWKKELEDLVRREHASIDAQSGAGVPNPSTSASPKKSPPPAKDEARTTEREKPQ
The data set is described as follows: Inhibition of GST-tagged SIRT2 (unknown origin) by HPLC assay.

Data set [10] addresses T6, NAD-dependent protein deacetylase sirtuin-2 (Homo sapiens) (UniProt Q8IXJ6).
T6 sequence (whole entry): T5 sequence (Q8IXJ6 whole entry)
The data set is described as follows: Ratio of AGK2 to compound in GST-tagged SIRT2 (unknown origin).

Data set [11] deals with T6, NAD-dependent protein deacetylase sirtuin-2 (Homo sapiens). Description: Activity of GST-tagged SIRT2 (unknown origin) assessed as compound deacetylation measured up to 4 hrs by sirutin time course assay.
The target of data set [12] is T2, NAD-dependent protein deacetylase sirtuin-1 (Homo sapiens). The data set is described as follows: Activity of GST-tagged SIRT1 (unknown origin) assessed as compound deacetylation measured up to 4 hrs by sirutin time course assay.
The target of data set [13] is T7, Histone deacetylase 8 (Homo sapiens) (UniProt Q9BY41).
T7 sequence (whole entry): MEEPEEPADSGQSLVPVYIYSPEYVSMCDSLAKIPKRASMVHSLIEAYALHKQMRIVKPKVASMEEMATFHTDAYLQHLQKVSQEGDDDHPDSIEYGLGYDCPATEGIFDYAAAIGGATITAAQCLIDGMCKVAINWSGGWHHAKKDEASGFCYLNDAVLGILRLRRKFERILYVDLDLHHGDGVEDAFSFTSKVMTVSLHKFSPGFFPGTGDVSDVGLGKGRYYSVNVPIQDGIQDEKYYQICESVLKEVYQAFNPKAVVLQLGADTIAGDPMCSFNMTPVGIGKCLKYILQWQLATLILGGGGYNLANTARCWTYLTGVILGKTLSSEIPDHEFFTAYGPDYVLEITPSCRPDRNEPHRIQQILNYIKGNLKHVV
The data set is described as follows: Activity of recombinant HDAC8 (unknown origin) assessed as compound deacetylation measured up to 4 hrs by time course assay.

The nature of data set [14]: Proteolytic stability of the compound assessed as degradation after 30 mins by HPLC in presence of pronase. Conditions: 0.5 h. The format is ADME.
Data set [15] concerns the target T2, NAD-dependent protein deacetylase sirtuin-1 (Homo sapiens). The data set is described as follows: Inhibition of SIRT1 in human HCT116 cells assessed as increase in p53 acetylation level at 500 uM by Western blot analysis. The conditions noted are these: HCT-116. The format is cell-based.
The target is the same in data set [16]. The data set is described as follows: Inhibition of SIRT1 in human HCT116 cells assessed as increase in p53 acetylation level at 5 uM by Western blot analysis. Conditions: HCT-116. The format is cell-based.

Calls of active or inactive are those of the source. The calls are words filed in the database; no cut-off is given here. Where a SMILES comes first, the peptide text is derived from it.

Histone deacetylase 1 (Homo sapiens), sequence (Q13547 whole entry): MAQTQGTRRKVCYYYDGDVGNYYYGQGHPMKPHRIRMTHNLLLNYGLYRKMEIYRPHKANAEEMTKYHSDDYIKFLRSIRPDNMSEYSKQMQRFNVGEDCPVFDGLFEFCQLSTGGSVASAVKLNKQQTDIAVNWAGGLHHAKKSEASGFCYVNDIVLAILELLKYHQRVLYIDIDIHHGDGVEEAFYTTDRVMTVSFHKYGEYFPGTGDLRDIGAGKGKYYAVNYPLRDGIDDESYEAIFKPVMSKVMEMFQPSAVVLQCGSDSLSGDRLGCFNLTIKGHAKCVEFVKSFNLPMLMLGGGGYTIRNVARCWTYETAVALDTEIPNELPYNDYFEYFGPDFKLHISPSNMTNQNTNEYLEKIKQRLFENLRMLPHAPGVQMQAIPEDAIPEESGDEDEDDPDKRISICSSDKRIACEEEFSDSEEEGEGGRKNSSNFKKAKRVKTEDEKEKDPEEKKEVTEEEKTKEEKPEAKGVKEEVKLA

In general, IC50 refers to the concentration needed to halve the response being measured. With `CC(=S)NCCCC[C@H](NC(=O)OCc1ccccc1)C(=O)Nc1ccccc1`, the IC50 in [1] worked out at 140 µM. In addition, the inhibition entry in data set [2] was “inactive”.
For the compound `CC(=O)NCCCC[C@H](NC(=O)[C@H](CCCCNC(C)=S)NC(=O)[C@H](CCCCNC(C)=O)NC(C)=O)C(N)=O`, the IC50 came out at 2.1 µM in data set [1], 4.5 µM in [5] and 2400 nM in data set [9]. In addition, the inhibition result in data set [3] is “Dose-dependent effect”. Also, in [4], the inhibition result was “Active”. Besides, the result in data set [6], in data set [11], in [12] and in data set [13] was inactive. For the same compound, the Activity in [7] and in [8] was 19% each time. For the same compound, the Ratio in data set [10] is 23. For the same compound, the Stability entry in [14] was “Stable”.
As for `CSCC[C@H](NC(=O)[C@H](CCCCNC(C)=O)NC(=O)[C@H](CCCCNC(C)=S)NC(=O)[C@H](CCCCNC(C)=O)NC(=O)[C@H](Cc1c[nH]cn1)NC(C)=O)C(N)=O` (HELM PEPTIDE1{[ac].H.K.[CC(=S)NCCCC[C@H](N[*:1])C(=O)[*:2]].K.M.[am]}|PEPTIDE2{[ac]}|PEPTIDE3{[ac]}$PEPTIDE1,PEPTIDE2,3:R3-1:R2|PEPTIDE1,PEPTIDE3,5:R3-1:R2$$$V2.0), the IC50 in [1] was 2 µM.
Regarding `CSCC[C@H](NC(=O)[C@H](CC(C)C)NC(=O)[C@H](CCCC/N=C(/C)S)NC(=O)[C@H](CCCCN)NC(=O)[C@H](Cc1c[nH]cn1)NC(=O)[C@H](CCCN=C(N)N)NC(=O)[C@H](CO)NC(=O)[C@@H](NC(=O)[C@H](CO)NC(=O)[C@H](CCC(N)=O)NC(=O)CNC(=O)[C@H](CCCCN)NC(=O)[C@@H](N)CCCCN)[C@@H](C)O)C(=O)N[C@@H](Cc1ccccc1)C(=O)N[C@@H](CCCCN)C(=O)N[C@H](C(=O)N[C@@H](CCC(=O)O)C(=O)NCC(=O)O)[C@@H](C)O`, the inhibition entry in [15] is “inactive”.
As for `CSCC[C@H](NC(=O)[C@H](CCCCNC(C)=O)NC(=O)[C@H](CCCCNC(C)=S)NC(=O)[C@H](CCCCN)NC(=O)[C@H](Cc1c[nH]cn1)NC(C)=O)C(N)=O` (HELM PEPTIDE1{[ac].H.K.[CC(=S)NCCCC[C@H](N[*:1])C(=O)[*:2]].K.M.[am]}|PEPTIDE2{[ac]}$PEPTIDE1,PEPTIDE2,5:R3-1:R2$$$V2.0), the IC50 in data set [1] was 0.7 µM.
The same measure, in the same setting: for `CSCC[C@H](NC(=O)[C@H](Cc1ccc(O)cc1)NC(=O)[C@H](CCCCNC(C)=S)NC(=O)[C@H](CCCCN)NC(=O)[C@H](Cc1c[nH]cn1)NC(C)=O)C(N)=O` (HELM PEPTIDE1{[ac].H.K.[CC(=S)NCCCC[C@H](N[*:1])C(=O)[*:2]].Y.M.[am]}$$$$V2.0) the value was 3.5 µM.
On the same count and under the same terms, under `CSCC[C@H](NC(=O)[C@H](CC(C)C)NC(=O)[C@H](CCCCNC(C)=S)NC(=O)[C@H](CCCCNC(C)=O)NC(=O)[C@H](Cc1c[nH]cn1)NC(C)=O)C(N)=O` (HELM PEPTIDE1{[ac].H.K.[CC(=S)NCCCC[C@H](N[*:1])C(=O)[*:2]].L.M.[am]}|PEPTIDE2{[ac]}$PEPTIDE1,PEPTIDE2,3:R3-1:R2$$$V2.0) stands 4.1 µM.
With `CC(=O)NCCC[C@H](NC(=O)[C@H](CCCCNC(C)=S)NC(=O)[C@H](CCCNC(C)=O)NC(C)=O)C(N)=O`, the concentration for half-maximal inhibition (IC50) in data set [1] was found to be 5.9 µM; in data set [5] it was 4.3 µM; in data set [9], 2900 nM. Also, the outcome in data set [6], in [7], in data set [8], in data set [11], in [12] and in data set [13] was inactive. For the same compound, the inhibition result in [16] is “Active”. In addition, the Stability result in data set [14] was “Stable”.
`CSCC[C@H](NC(=O)[C@H](CC(C)C)NC(=O)[C@H](CCCCNC(C)=S)NC(=O)[C@H](Cc1ccc(O)cc1)NC(=O)[C@H](Cc1c[nH]cn1)NC(C)=O)C(N)=O` (HELM PEPTIDE1{[ac].H.Y.[CC(=S)NCCCC[C@H](N[*:1])C(=O)[*:2]].L.M.[am]}$$$$V2.0): the IC50 in data set [1] was 4.2 µM.
Still for that read-out and setting: under `CSCC[C@H](NC(=O)[C@H](Cc1ccc(O)cc1)NC(=O)[C@H](CCCCNC(C)=S)NC(=O)[C@H](Cc1ccc(O)cc1)NC(=O)[C@H](Cc1c[nH]cn1)NC(C)=O)C(N)=O` (HELM PEPTIDE1{[ac].H.Y.[CC(=S)NCCCC[C@H](N[*:1])C(=O)[*:2]].Y.M.[am]}$$$$V2.0) stands 6 µM.
